Results published in patent US9723842B2, “Isothiazolinone biocides enhanced by zinc ions” (ARCH CHEMICALS, INC., priority 2006, dated 2017).
Like-named read-outs stand apart in the source and are kept apart here.

System: Ps. aeruginosa
Assay: Minimum inhibitory concentration against mono-cultures (microtitre plate, doubling dilutions)
Type: cell-based, Pseudomonas aeruginosa (NCIB 10421)
Conditions: for MIC: Pseudomonas aeruginosa
Method: Pseudomonas aeruginosa (NCIB 10421) maintained on nutrient agar, were used to study the synergy between BIT and ZnCl2. Bacteria were grown to stationary phase (approximately 24 hours) in nutrient broth (approximately 10^9 organisms per ml). A 0.1% (v/v) inoculum was used to seed fresh medium and 100 μl of the inoculum was then added to each well of a microtitre plate, except for the first well which contained 200 μl. Using doubling dilutions, the concentration of the compounds under investigation were varied in each well along the ordinate axis. The presence or absence of growth was recorded by visual inspection after 24 hours incubation at 37° C. Bacteria were grown to stationary phase (approximately 24 hours) in nutrient broth (approximately 10^9 organisms per ml). A 0.1% (v/v) inoculum was used to seed fresh medium and 100 μl of the inoculum was then added to each well of a microtitre plate, except for the first well which contained 200 μl. Using doubling dilutions, the concentration of the compounds under investigation were varied in each well along the ordinate axis. The presence or absence of growth was recorded by visual inspection after 24 hours incubation at 37° C.

[1] = Comparative Example A, Table 10

SMILES	MIC (ppm) against Ps. aeruginosa [1]	MIC (ppm) against Ps. aeruginosa (Example 2, Table 2, column 1) [ppm]	MIC (ppm) against Ps. aeruginosa (Example 2, Table 2, column 2) [ppm]	MIC (ppm) against Ps. aeruginosa (Example 2, Table 2, column 3) [ppm]	MIC (ppm) against Ps. aeruginosa (Example 2, Table 2, column 4) [ppm]	MIC (ppm) against Ps. aeruginosa (Example 5, Table 8, column 1) [ppm]	MIC (ppm) against Ps. aeruginosa (Example 5, Table 8, column 2) [ppm]	MIC (ppm) against Ps. aeruginosa (Example 5, Table 8, column 3) [ppm]	MIC (ppm) against Ps. aeruginosa (Example 5, Table 8, column 4) [ppm]	other results
O=c1[nH]sc2ccccc12 [BIT, 1,2-benzisothiazolin-3-one]	30 ppm	30	42	42	30					
Cn1sccc1=O [MIT, 2-methyl-4-isothiazolin-3-one]										MIC (read-out: MIC (ppm) against Ps. aeruginosa, Example 4, Table 6, column 1): 9 µg/mL; MIC (read-out: MIC (ppm) against Ps. aeruginosa, Example 4, Table 6, column 2): 6 µg/mL; MIC (read-out: MIC (ppm) against Ps. aeruginosa, Example 4, Table 6, column 3): 10.5 µg/mL; MIC (read-out: MIC (ppm) against Ps. aeruginosa, Example 4, Table 6, column 4): 8 µg/mL
[Cl-].[Cl-].[Zn+2] [ZnCl2, zinc chloride]		300	450	375	450	525	525	600	600	MIC (ppm) against Ps. aeruginosa (Example 3, Table 4, column 1): 294 ppm; MIC (ppm) against Ps. aeruginosa (Example 3, Table 4, column 2): 294 ppm; MIC (ppm) against Ps. aeruginosa (Example 3, Table 4, column 3): 210 ppm; MIC (ppm) against Ps. aeruginosa (Example 3, Table 4, column 4): 600 ppm; MIC (ppm) against Ps. aeruginosa (Example 4, Table 6, column 1): 210 ppm; MIC (ppm) against Ps. aeruginosa (Example 4, Table 6, column 2): 210 ppm; MIC (ppm) against Ps. aeruginosa (Example 4, Table 6, column 3): 450 ppm; MIC (ppm) against Ps. aeruginosa (Example 4, Table 6, column 4): 450 ppm
CCCCn1sc2ccccc2c1=O [BBIT, N-(n-butyl)-1,2-benzisothiazolin-3-one]						315	360	42	180	
[Cl-].[Na+] [NaCl2, Sodium Chloride]	None detected (greater than 675) ppm									
